In US20040052836A1, “Pharmaceutical compositions containing at least one stable liposphere having an improved shelf life” (priority 2002, published 2004):
Where a name gives a salt, the structure may show the parent alone.

Legend:
guinea pigs = assay: Guinea pig wheal anesthesia study (pin-prick); type: in vivo; conditions: subcutaneous 300 μL; 3% liposphere (p<0.043) or 0.5% bupivacaine HCl solution (p<0.008); 1-tailed test; FIG. 3
Protocol: Liposphere formulation containing bupivacaine (3%), tristearin (6%), and DMPC (0.75%) and the liposphere vehicle containing tristearin (6%) and DMPC (0.75%) were evaluated for their anesthesia activities in guinea pigs. The liposphere formulation and vehicle were prepared as described in Example 1. In addition, a solution of bupivacaine HCl (0.5%) and its vehicle (normal saline solution) were evaluated for comparison. In this example, adult guinea pigs were randomly assigned to one of two groups, with each group receiving two subcutaneous injections: one of vehicle and one of the test articles. Half of the animals in each group were given the vehicle on the left side and the test article on the right side. The other half were given the test article on the left side and the vehicle on the right. Injection volume was 300 μL. There were two injections given to each animal. Both groups consisted of eight animals, four of each group received an injection of the vehicle on the left side of the spine, and the remaining four animals received an injection of the vehicle on the right side. […] The “anesthetic action” (the ability of local anesthetics to block the skin reflex in guinea pigs) was determined using the “pin-prick” method. […] The ability of the test compound to block the twitch responses of the guinea pig to six probings with a carefully calibrated needle algesimeter was evaluated. […]

rats = assay: Rat thermal paw flick anesthesia study; type: in vivo; conditions: intraplantar injection 100 μL
Protocol: Liposphere containing bupivacaine (3%), tristearin (6%), and DMPC (0.75%) was tested for its local anesthetic activity in rats. Its activity was compared with that of bupivacaine HCL (3%) solution. The liposphere formulation was prepared as described in Example 1. Adult rats were given an intraplantar injection of 100 μL of either liposphere formulation or bupivacaine HCl solution. Animals were then individually placed into a Hargreaves “hotbox,” in which a beam of light, as a heat source, was focused on the plantar surface of the injected paw at various intervals after treatment. The latency for the rat to withdraw its paw was recorded, up to a maximum of 20 seconds. The earliest time point examined in these studies was 30 min. The latest time point was 120 min for animals treated with bupivacaine HCl solution (by which time latencies had returned to predrug baseline levels), and 1440 min for animals treated with liposphere formulation.

## CCCCN1CCCCC1C(=O)Nc1c(C)cccc1C (stereo not drawn) [bupivacaine HCl solution, bupivacaine HCl]
Guinea pigs
  duration of statistically significant anesthesia compared to vehicle: up to 0.75 hours
rats; 3% bupivacaine liposphere or 3% bupivacaine HCl solution, paw withdrawal latency, FIG. 2
  duration of anesthesia post injection: up to 60 min
rats; bupivacaine HCl 3% solution
  time by which latencies had returned to predrug baseline levels: ≤ 120 min
